Experimental data reported in patent publication US10071976B2, “Small molecule fatty acid synthase inhibitors” (Sanford Burnham Prebys Medical Discovery Institute, priority 2014, dated 2018).

Target: T1, ACOT4 (Homo sapiens, UniProt Q8N9L9)
T1 sequence (Q8N9L9 1-421): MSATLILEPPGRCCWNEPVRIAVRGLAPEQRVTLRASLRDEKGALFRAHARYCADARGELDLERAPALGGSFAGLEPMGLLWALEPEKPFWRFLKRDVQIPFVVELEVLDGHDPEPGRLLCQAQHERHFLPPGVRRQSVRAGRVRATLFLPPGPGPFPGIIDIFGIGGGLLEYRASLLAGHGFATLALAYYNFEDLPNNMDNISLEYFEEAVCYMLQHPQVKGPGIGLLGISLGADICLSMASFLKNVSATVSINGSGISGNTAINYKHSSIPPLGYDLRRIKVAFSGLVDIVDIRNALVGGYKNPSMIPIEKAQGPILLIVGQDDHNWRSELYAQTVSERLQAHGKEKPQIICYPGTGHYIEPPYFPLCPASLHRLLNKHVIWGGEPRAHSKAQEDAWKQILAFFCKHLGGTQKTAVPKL
Experiment: FP-PEG-TAMRA labeling of recombinant ACOT4
Type: binding
Details: recombinant enzyme, 20 μM final, pH 7.8
Experimental: (§1) Additionally, studies were performed to test the selectivity of Compounds 1, 16, 22, and 37 for the FASN thioesterase over its most closely related human homolog, the enzyme called ACOT4 (see FIG. 3). Both proteins were mixed and pretreated with the compound (20 μM final, pH 7.8) before addition of the fluorescent activity probe FP-PEG-TAMRA. Respective fluorescence of the bands was detected on a Hitachi flatbed scanner and a greyscale version used for quantitative analysis using ImageJ. Recombinant forms of each enzyme were incubated with compound 16, compound 1, compound 37, and compound 22. FP-TAMRA was included in this mixture to label the active site of the FASN thioesterase and ACOT4. […] These findings further attest to the high degree of selectivity of compounds 1, 16, 37 and 22 for the FASN thioesterase.

SMILES | activity labeling of ACOT4
CCCCC(=O)Nc1nc(-c2ccc(S(=O)(=O)N3CCC(C)CC3)cc2)cs1 [Compound 22] | without effect

Test system: prostate cancer PC-3 cells
Experiment: De novo palmitate synthesis from 13C-glucose in whole cells (GC-MS)
Type: cell-based
Details: not given
Experimental: The ability of compounds to block biosynthesis of palmitate in whole cells (prostate cancer PC-3 cells) was measured by feeding cells isotopically labeled glucose (^13C-glucose) and measuring the incorporation of ^13C into palmitate by GC-MS.
Prostate cancer PC-3 cell were incubated with 20 μM of FASN inhibitors and labeled with [U-13C]-glucose for 24 h, pH 7.8. The incorporation of ^13C into palmitate from labeled glucose was determined by extracting fatty acids and resolving them by GC-MS. The mass distributions for fatty acid methyl esters for C16:0 (palmitate) were corrected for isotope natural abundance, and the corrected isotope patterns were used to calculate the labeling of acetyl-CoA in palmitate based on a binomial probability distribution of the incorporation of labeled acetyl units into the fatty acid chain.

SMILES | inhibition of palmitate synthesis in whole cells
Cc1ccc(NC(=O)Cc2nc(-c3ccc(S(=O)(=O)N4CCOCC4)cc3)cs2)cc1 [Compound 97] | did not inhibit palmitate synthesis

Same assay, conditions: 20 μM, [U-13C]-glucose 24 h, pH 7.8, relative to DMSO control

SMILES | de novo palmitate synthesis/DMSO (%)
Cc1ccc(NC(=O)Cc2nc(-c3ccc(S(=O)(=O)N4CCOCC4)cc3)cs2)cc1 [Compound 97] | 95

Target: T2, FASN thioesterase (Homo sapiens, UniProt P49327)
T2 construct: label the active site of the FASN thioesterase and ACOT4
Experiment: FP-PEG-TAMRA labeling of recombinant FASN thioesterase
Type: binding
Details: recombinant enzyme, 20 μM final, pH 7.8
Experimental: as §1

T2 sequence (P49327 2207-2511 limits assumed): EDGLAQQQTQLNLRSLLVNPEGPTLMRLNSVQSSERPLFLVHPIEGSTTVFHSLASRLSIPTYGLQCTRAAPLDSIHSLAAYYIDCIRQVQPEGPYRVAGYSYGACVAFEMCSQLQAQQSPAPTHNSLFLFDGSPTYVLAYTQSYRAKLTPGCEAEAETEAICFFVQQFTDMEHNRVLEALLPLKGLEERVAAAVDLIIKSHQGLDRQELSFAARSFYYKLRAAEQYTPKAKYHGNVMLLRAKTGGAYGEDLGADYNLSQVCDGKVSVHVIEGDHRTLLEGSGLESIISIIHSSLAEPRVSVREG

SMILES | binding of FP-TAMRA to the active site of the FASN thioesterase
CCCCC(=O)Nc1nc(-c2ccc(S(=O)(=O)N3CCC(C)CC3)cc2)cs1 [Compound 22] | blocked the binding of FP-TAMRA

Target: FASN-TE (Homo sapiens, UniProt P49327)
Experiment: In-vitro biochemical assay measuring FAS-TE inhibition (OMFH substrate, fluorescence)
Details: not given
Experimental: Min wells: Substrate+No enzyme+DMSO, Max wells: Substrate+Enzyme+DMSO, Sample wells: Substrate+Enzyme+Test compounds, Reference compound: Orlistat (make a fresh 10 mM stock in DMSO each time). 384-well black, low-volume plate (Greiner #784076)
Assay Protocol: • 1) ECHO transfer 160 nL of 125× Compound (or DMSO for control wells) per well. • 2) For Max and Sample wells: Add 10 μL of Enzyme (2×; 1.8 μM) prepared in RXN Buffer. For Min wells: Add 10 μL of RXN Buffer (No Enzyme). • 3) For all wells: Add 10 μL of Substrate (2×; 20 μM) prepared in diH2O+10% DMSO. • 4) Centrifuge plate for 1 minute at 1,000 rpm. • 5) Measure fluorescence every 5 minutes for 1-1.5 hours using the BMG POLARstar (ex 485 nm/em 520 nm; Gain=1015; 25 flashes). • 6) All volumes can be adjusted but the final DMSO concentration should be kept at about 6%.
Data Analysis: • 1) Calculate slopes and express as % Activity (Min wells=0%; Max wells=100%). • 2) Then, using Prism, calculate the IC50 values.

Sequence of FASN-TE (P49327 2207-2511 limits assumed): as above

SMILES | IC50 [nM]
CCCCC(=O)Nc1nc(-c2ccc(S(=O)(=O)N3CCC(C)CC3)cc2)cs1 [Compound 22] | 501
CN(C)S(=O)(=O)c1ccc(-c2csc(NC(=O)C3CCC3)n2)cc1 [Compound 42] | 1400
CN(C)S(=O)(=O)c1ccc(-c2csc(NC(=O)C3CCCC3)n2)cc1 [Compound 43] | 1600
CCCCCCCC(=O)Nc1nc(-c2ccc(S(=O)(=O)N3CCCCC3C)cc2)cs1 (centres unmarked) [Compound 47] | 4300
CC(C)CC(=O)Nc1nc(-c2ccc(S(=O)(=O)N3CCCC3)cc2)cs1 [Compound 52] | 1600
CCCCCCC(=O)Nc1nc(-c2ccc(S(=O)(=O)N(CC)CC)cc2)cs1 [Compound 54] | 1400
CCCCCCC(=O)Nc1nc(-c2ccc(S(=O)(=O)N3CCC(C)CC3)cc2)cs1 [Compound 58] | 4500
CC(C)CC(=O)Nc1nc(-c2ccc(S(=O)(=O)N3CCC(C)CC3)cc2)cs1 [Compound 59] | 60400
CCC(CC)C(=O)Nc1nc(-c2ccc(S(=O)(=O)N3CCC(C)CC3)cc2)cs1 [Compound 61] | 1800
O=S(=O)(c1ccc(-c2csc(-c3cccnc3)n2)cc1)N1CCCCC1 [Compound 64] | 2680
O=S(=O)(c1ccc(-c2csc(-c3cccnc3)n2)cc1)N1CCCC1 [Compound 69] | 1510
O=S(=O)(c1ccc(-c2csc(Nc3ccc(F)cc3)n2)cc1)N1CCCC1 [Compound 80] | 14800
O=S(=O)(c1ccc(-c2csc(-c3cccnc3)n2)cc1)N1CCOCC1 [Compound 81] | 2140
CCN(CC)S(=O)(=O)c1ccc(-c2csc(C)n2)cc1 [Compound 82] | ≥ 80000
CN(C)S(=O)(=O)c1ccc(-c2csc(-c3cccnc3)n2)cc1 [Compound 83] | 5210
Cc1ccc(NC(=O)Cc2nc(-c3ccc(S(=O)(=O)N4CCOCC4)cc3)cs2)cc1 [Compound 97] | ≥ 80000

SMILES | IC50 [nM]
CCN(CC)S(=O)(=O)c1ccc(-c2csc(NC(=O)CC(C)C)n2)cc1 [Compound 99] | 19000
CCc1nc(-c2ccc(S(=O)(=O)N(CC)CC)cc2)cs1 [Compound 100] | ≥ 80000
CCN(CC)S(=O)(=O)c1ccc(-c2csc(C(C)C)n2)cc1 [Compound 101] | 11400
CCN(CC)S(=O)(=O)c1ccc(-c2csc(C(C)(C)C)n2)cc1 [Compound 102] | 12600
CCN(CC)S(=O)(=O)c1ccc(-c2csc(-c3ccc(Cl)cc3)n2)cc1 [Compound 104] | ≥ 80000
CCN(CC)S(=O)(=O)c1ccc(-c2csc(-c3ccc(Br)cc3)n2)cc1 [Compound 105] | ≥ 80000
CCN(CC)S(=O)(=O)c1ccc(-c2csc(-c3ccc(Br)cc3C)n2)cc1 [Compound 106] | ≥ 80000
CCN(CC)S(=O)(=O)c1ccc(-c2csc(-c3cccc(Br)c3)n2)cc1 [Compound 107] | ≥ 80000
CCN(CC)S(=O)(=O)c1ccc(-c2csc(Cc3cccc(C(F)(F)F)c3)n2)cc1 [Compound 108] | ≥ 80000
CCN(CC)S(=O)(=O)c1ccc(-c2csc(Cc3ccccc3F)n2)cc1 [Compound 109] | 1720
CCN(CC)S(=O)(=O)c1ccc(-c2csc(Cc3cccc(F)c3)n2)cc1 [Compound 110] | 3150
CCN(CC)S(=O)(=O)c1ccc(-c2csc(Cc3ccc(F)cc3)n2)cc1 [Compound 111] | 2410
CCN(CC)S(=O)(=O)c1ccc(-c2csc(Cc3cccc(I)c3)n2)cc1 [Compound 112] | 5010
CCN(CC)S(=O)(=O)c1ccc(-c2csc(Cc3ccccc3OC)n2)cc1 [Compound 113] | 6920
CC(C)c1nc(-c2ccc(S(=O)(=O)N3CCOCC3)cc2)cs1 [Compound 115] | 21700
O=S(=O)(c1ccc(-c2csc(-c3ccc(F)cc3)n2)cc1)N1CCOCC1 [Compound 116] | 1480

Now from value to molecule:

IC50 [nM] | SMILES
580 | CC(C)C(=O)Nc1nc(-c2ccc(S(=O)(=O)N(C)C)cc2)cs1 [Compound 39]
1100 | CCC(=O)Nc1nc(-c2ccc(S(=O)(=O)N(C)C)cc2)cs1 [Compound 40]
1200 | CN(C)S(=O)(=O)c1ccc(-c2csc(NC(=O)C3CC3)n2)cc1 [Compound 41]
290 | CCC(C)C(=O)Nc1nc(-c2ccc(S(=O)(=O)N3CCCCC3C)cc2)cs1 (centres unmarked) [Compound 44]
380 | CCCCC(=O)Nc1nc(-c2ccc(S(=O)(=O)N3CCCCC3C)cc2)cs1 (centres unmarked) [Compound 45]
580 | CCCC(=O)Nc1nc(-c2ccc(S(=O)(=O)N3CCCCC3C)cc2)cs1 (centres unmarked) [Compound 46]
150 | CCC(C)C(=O)Nc1nc(-c2ccc(S(=O)(=O)N3CCCC3)cc2)cs1 (centres unmarked) [Compound 48]
260 | CCC(CC)C(=O)Nc1nc(-c2ccc(S(=O)(=O)N3CCCC3)cc2)cs1 [Compound 49]
140 | CCCCCC(=O)Nc1nc(-c2ccc(S(=O)(=O)N3CCCC3)cc2)cs1 [Compound 50]
850 | CCCCCCC(=O)Nc1nc(-c2ccc(S(=O)(=O)N3CCCC3)cc2)cs1 [Compound 51]
200 | CCCCCC(=O)Nc1nc(-c2ccc(S(=O)(=O)N(CC)CC)cc2)cs1 [Compound 53]
330 | CCC(CC)C(=O)Nc1nc(-c2ccc(S(=O)(=O)N(CC)CC)cc2)cs1 [Compound 55]
750 | CCCCCC(=O)Nc1nc(-c2ccc(S(=O)(=O)N3CCC(C)CC3)cc2)cs1 [Compound 57]
410 | CCC(C)C(=O)Nc1nc(-c2ccc(S(=O)(=O)N3CCC(C)CC3)cc2)cs1 (centres unmarked) [Compound 60]
1310 | O=C(Nc1nc(-c2ccc(S(=O)(=O)N3CCCC3)cc2)cs1)C1COc2ccccc2O1 (centres unmarked) [Compound 63]
660 | O=S(=O)(c1ccc(-c2csc(Cc3ccccc3)n2)cc1)N1CCOCC1 [Compound 96]
1180 | O=S(=O)(c1ccc(-c2csc(N3CCCC3)n2)cc1)N1CCOCC1 [Compound 98]
1110 | CCN(CC)S(=O)(=O)c1ccc(-c2csc(-c3ccc(F)cc3)n2)cc1 [Compound 103]

Same assay, conditions: negative control

activity in the enzyme-based assay | SMILES
no activity | Cc1ccc(NC(=O)Cc2nc(-c3ccc(S(=O)(=O)N4CCOCC4)cc3)cs2)cc1 [Compound 97]

Target: T3, FASN (Homo sapiens, UniProt P49327)
T3 construct: lysates of the prostate tumor line (PC3), which expresses FASN; endogenous in cells; host or cells: PC-3 prostate tumour cells (whole cell lysate)
Experiment: Competition with activity-based probe FP-PEG-TAMRA in PC-3 whole cell lysate: FASN
Type: binding
Details: PC-3 lysate, 20 μM final, pH 7.8
Experimental: Studies were conducted to determine the selectivity of compound 16 for FASN over other human thioesterases. The ability of the compounds to bind the FASN holoenzyme was tested by assessing their ability to compete for the binding of an activity-based probe that covalently attaches to the active site of the FASN thioesterase. Thioesterases are members of the serine hydrolase family, which also includes a number of other types of enzymes including proteases, dipeptidyl peptidases, epoxide hydrolases, etc. To help assess the selectivity of compound 16, an activity-based probe polyethyleneglycol-6-carboxytetramethyl-rhodamine (FP-PEG-TAMRA) that binds covalently to the catalytic serine of all serine hydrolases was used. These studies were done by assessing the ability of compound 16 to compete for the binding of the activity-based probe in whole cell lysates. Several analogs of compound 16 were tested in this assay using lysates of the prostate tumor line (PC3), which expresses FASN, along with numerous other serine hydrolases. The PC-3 lysate was incubated with 8 different FASN inhibitors, including compounds 1, 16 and 97. Then the activity-based probe (FP-PEG-TAMRA) was added to each sample to label the serine hydrolases in the lysate.

T3 sequence (P49327 whole entry): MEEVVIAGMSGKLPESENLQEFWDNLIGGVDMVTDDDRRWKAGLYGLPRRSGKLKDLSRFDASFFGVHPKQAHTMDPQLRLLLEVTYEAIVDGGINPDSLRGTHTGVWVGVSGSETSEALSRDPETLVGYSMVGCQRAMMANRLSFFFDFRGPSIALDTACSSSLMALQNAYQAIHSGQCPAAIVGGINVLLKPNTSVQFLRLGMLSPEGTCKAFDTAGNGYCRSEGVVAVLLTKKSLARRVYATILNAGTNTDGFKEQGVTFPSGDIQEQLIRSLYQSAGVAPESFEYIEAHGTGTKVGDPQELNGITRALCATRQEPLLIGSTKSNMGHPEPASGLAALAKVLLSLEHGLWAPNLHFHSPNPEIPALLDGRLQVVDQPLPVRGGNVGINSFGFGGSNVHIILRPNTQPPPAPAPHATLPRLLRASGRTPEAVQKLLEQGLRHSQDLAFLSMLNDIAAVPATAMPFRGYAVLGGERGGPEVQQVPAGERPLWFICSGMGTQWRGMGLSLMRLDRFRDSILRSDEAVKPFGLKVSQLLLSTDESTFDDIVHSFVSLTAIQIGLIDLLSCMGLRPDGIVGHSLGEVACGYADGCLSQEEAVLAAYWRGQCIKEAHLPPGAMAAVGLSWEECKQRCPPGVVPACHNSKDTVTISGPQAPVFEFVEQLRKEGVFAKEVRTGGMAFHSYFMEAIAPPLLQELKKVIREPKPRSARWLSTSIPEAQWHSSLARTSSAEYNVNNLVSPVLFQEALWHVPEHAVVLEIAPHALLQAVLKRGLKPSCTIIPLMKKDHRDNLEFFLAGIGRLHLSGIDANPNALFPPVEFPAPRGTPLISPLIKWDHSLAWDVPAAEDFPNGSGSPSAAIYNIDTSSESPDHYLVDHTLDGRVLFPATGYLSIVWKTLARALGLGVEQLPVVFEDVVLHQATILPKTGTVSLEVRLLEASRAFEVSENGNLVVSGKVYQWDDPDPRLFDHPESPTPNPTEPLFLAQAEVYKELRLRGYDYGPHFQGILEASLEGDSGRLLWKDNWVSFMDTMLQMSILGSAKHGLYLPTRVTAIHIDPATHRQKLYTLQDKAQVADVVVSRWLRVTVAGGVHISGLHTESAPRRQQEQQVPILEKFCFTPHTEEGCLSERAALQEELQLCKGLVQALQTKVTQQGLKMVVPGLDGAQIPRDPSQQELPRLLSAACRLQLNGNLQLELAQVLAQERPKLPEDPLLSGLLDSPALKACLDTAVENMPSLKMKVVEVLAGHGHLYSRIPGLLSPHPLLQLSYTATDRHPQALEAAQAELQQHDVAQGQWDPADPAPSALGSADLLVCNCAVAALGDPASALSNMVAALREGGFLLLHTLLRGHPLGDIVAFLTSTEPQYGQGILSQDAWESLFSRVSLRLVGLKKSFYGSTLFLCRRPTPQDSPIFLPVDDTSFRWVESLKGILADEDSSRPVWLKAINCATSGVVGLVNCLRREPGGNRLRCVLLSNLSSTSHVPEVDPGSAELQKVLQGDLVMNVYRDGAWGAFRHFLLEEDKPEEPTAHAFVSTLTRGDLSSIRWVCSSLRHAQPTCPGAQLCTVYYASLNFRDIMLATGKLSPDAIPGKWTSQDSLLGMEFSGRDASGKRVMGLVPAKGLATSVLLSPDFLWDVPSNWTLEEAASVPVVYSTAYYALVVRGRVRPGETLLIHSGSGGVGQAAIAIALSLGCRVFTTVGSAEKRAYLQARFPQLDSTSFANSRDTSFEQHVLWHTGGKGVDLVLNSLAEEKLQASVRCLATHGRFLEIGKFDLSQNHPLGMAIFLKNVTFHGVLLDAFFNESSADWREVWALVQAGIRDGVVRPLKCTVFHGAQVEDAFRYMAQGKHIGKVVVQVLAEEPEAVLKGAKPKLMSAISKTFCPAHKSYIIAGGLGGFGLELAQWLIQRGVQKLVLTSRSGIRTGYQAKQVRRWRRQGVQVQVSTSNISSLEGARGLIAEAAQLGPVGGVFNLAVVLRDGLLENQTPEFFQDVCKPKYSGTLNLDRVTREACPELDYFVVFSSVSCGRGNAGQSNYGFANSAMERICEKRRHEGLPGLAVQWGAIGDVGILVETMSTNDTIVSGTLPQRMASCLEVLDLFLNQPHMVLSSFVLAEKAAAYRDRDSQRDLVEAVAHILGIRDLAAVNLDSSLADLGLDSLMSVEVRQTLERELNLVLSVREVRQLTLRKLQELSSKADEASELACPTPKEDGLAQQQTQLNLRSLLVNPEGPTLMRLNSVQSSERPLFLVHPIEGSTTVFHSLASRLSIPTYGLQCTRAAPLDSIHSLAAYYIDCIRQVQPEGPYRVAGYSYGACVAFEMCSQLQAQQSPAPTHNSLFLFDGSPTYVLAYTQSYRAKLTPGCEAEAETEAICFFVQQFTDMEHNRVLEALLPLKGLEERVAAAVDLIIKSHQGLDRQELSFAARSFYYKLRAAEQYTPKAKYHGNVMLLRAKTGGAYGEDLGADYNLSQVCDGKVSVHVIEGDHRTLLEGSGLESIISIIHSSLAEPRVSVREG

inhibition of FASN (blocking of FP-TAMRA binding) | SMILES
did not | Cc1ccc(NC(=O)Cc2nc(-c3ccc(S(=O)(=O)N4CCOCC4)cc3)cs2)cc1 [Compound 97]
